14 molecules from ChEMBL document CHEMBL1833897, “Lead generation of heat shock protein 90 inhibitors by a combination of fragment-based approach, virtual screening, and structure-based drug design” (Bioorg Med Chem Lett, 2011) can be followed below.

For assay [1], the target named is T1, Heat shock protein HSP 90-alpha (Homo sapiens, UniProt P07900).
Description: Binding affinity to human HSP90alpha assessed as 2D1H-15N chemical shift perturbation by NMR spectroscopy
For assay [2], the target named is T1, Heat shock protein HSP 90-alpha. The source holds these as a separate data set.
Description: Inhibition of human N-terminal GST-tagged HSP90alpha expressed in Escherichia coli after 1 hr using 10 mM of ATP and malachite green by microplate reader
Assay [3] shares this target. This is another data set of the same source.
Description: Binding affinity to biotinylated N-terminal human HSP90alpha using of streptavidin coated surface by SPR binding assay

Some results are limits rather than exact numbers.

For orientation: Kd means the concentration at which binding is half-saturated. A higher Kd goes with a looser complex. The term IC50 denotes the concentration that gives 50% inhibition. Low readings indicate inhibition by little substance, high ones a need for much substance.

As for `CSc1nc(N)nc(-c2ccncc2)n1`, the Kd in assay [1] is > 1 µM.

Regarding `Nc1cnccn1`, in assay [1], the Kd is 79 µM. This counts as double-digit micromolar.

The molecule `CSc1nc(N)nc(SCc2ccc(Cl)cc2)n1` returned an IC50 in assay [2] of 24 µM. Also, the Kd in assay [1] amounted to 3.7 µM.

In assay [2], `CSc1nc(N)nc(SCc2ccccc2)n1` gave an IC50 of 16 µM. This counts as double-digit micromolar.

`CSc1nc(N)nc(-c2ccccc2C)n1` returned an IC50 in assay [2] of 0.57 µM. In addition, the affinity in assay [1], expressed as Kd, was 4.5 µM.

On to `Nc1ncc2c(n1)-c1ccoc1CC2`, for which, in assay [1], binding was characterised by a dissociation constant (Kd) of 0.33 µM.

In turn, `CCCc1nc(N)ncc1C(=O)OCC` showed a Kd in assay [1] of 0.34 µM.

`Nc1nccc(-c2nccs2)n1` displayed a Kd in assay [1] of 0.57 µM.

Take `CC(=O)c1cnc(N)nc1C`: the Kd in assay [1] is > 1 µM.

In assay [1], `Nc1ccncn1` returned a Kd of 300 µM.

As for `CSc1nc(N)nc(SCCN2CCOCC2)n1`, the midpoint of inhibition in assay [2], the IC50, lay at 33 µM. This molecule returned a Kd in assay [1] of 2.3 µM.

As for `Oc1ccc2c(c1)CCc1c[nH]nc1-2`, in assay [3], the Kd worked out at 0.75 µM.

Molecule `CSc1nc(N)nc(-c2ccccc2)n1` had an IC50 in assay [2] of 31 µM. In assay [1], the affinity, expressed as Kd, was 51 µM.

In assay [1], `Nc1ncncn1` yielded a Kd of 10 µM.
